Data on 5 molecules can be found in ChEMBL document CHEMBL2203091, “Synthesis of novel МТ3 receptor ligands via an unusual Knoevenagel condensation” (Bioorg Med Chem Lett, 2012).

Assay [1] concerns the target T1, Ribosyldihydronicotinamide dehydrogenase [quinone] (Homo sapiens) (UniProt P16083).
T1 sequence (whole entry): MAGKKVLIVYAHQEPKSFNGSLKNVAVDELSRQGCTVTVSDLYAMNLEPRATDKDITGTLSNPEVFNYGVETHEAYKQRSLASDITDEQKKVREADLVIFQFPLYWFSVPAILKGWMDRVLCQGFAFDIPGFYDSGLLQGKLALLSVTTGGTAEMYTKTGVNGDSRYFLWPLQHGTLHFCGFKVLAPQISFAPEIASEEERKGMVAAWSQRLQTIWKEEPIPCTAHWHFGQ
The assay is described as follows: Inhibition of […] reductase 2 using MTT and NMeH as substrates.

The target in assay [2] is T2, Ribosyldihydronicotinamide dehydrogenase [quinone] (Homo sapiens, UniProt P16083).
T2 sequence (P16083 whole entry): T1 sequence (whole entry)
Put plainly: Binding affinity to […] reductase 2 using MTT and NMeH as substrates.

Assay [3] has as its target T1, Ribosyldihydronicotinamide dehydrogenase [quinone] (Homo sapiens). Particulars: 0.5 to 50 uM.
Description: Inhibition of human recombinant quinine reductase 2 expressed in Escherichia coli BL21 (DE3) using menadione and NMeH as substrates at 0.5 to 50 uM

Molecules are shown by their SMILES.

`CC(=O)NCCC1C(=O)Nc2ccc(NC(C)=O)cc21` (stereo not given) gave an Imax in assay [1] of 81.7%. Besides, the IC50 (usually the concentration at which inhibition is half-maximal) in assay [2] is 20.7 µM.
The molecule `CC(=O)Nc1ccc2c(c1)C(CC#N)C(=O)N2` (stereo not given) registered an Imax in assay [1] of 100%. The IC50 in assay [2] is 14.1 µM.
The matching figures for `CC(=O)Nc1ccc2c(c1)C(CC#N)C(=O)N2C` (stereo not given): 99.2% and 7 µM.
For `CC(=O)NCCC1(O)C(=O)Nc2ccc(NC(C)=O)cc21` (stereo not given), the Imax in assay [1] stood at 36.3%. In addition, in assay [2], the IC50 came to 0.2 µM.
On to `COc1ccc2[nH]cc(CCNC(C)=O)c2c1`, for which the Imax turned out to be 85.2% in assay [1] and 75% in assay [3].
